Results published in patent US20170114021A1, “HALOGEN-SUBSTITUTED COMPOUNDS” (priority 2014, published 2017).

How the values were obtained:
Assay type in all cases: in vivo
Phaedon cochleariae = Phaedon cochleariae spray test (PHAECO); details: application rate 100 g/ha; Chinese cabbage leaf discs; after 7 days
Experimental: Phaedon cochleariae—Spray Test (PHAECO) Solvent: 78.0 parts by weight of acetone • • 1.5 parts by weight of dimethylformamide Emulsifier: alkylaryl polyglycol ether
To produce a suitable preparation of active compound, 1 part by weight of active compound is dissolved using the specified parts by weight of solvent and made up with water containing an emulsifier concentration of 1000 ppm until the desired concentration is attained. To produce further test concentrations, the preparation is diluted with emulsifier-containing water.
After 7 days, efficacy in % is determined. 100% means that all the beetle larvae have been killed; 0% means that no beetle larvae have been killed.

Ctenocephalides felis = Ctenocephalides felis oral test (CTECFE); details: application rate 20 ppm in citrated cattle blood; after 2 days
Experimental: Ctenocephalides felis—Oral Test (CTECFE) Solvent: dimethyl sulphoxide
To produce a suitable preparation of active compound, 10 mg of active compound are mixed with 0.5 ml of dimethyl sulphoxide. Dilution with citrated cattle blood gives the desired concentration.
About 20 unfed adult cat fleas (Ctenocephalides felis) are placed into a chamber which is closed at the top and bottom with gauze. A metal cylinder whose bottom end is closed with parafilm is placed onto the chamber. The cylinder contains the blood/active compound preparation, which can be imbibed by the fleas through the parafilm membrane.
After 2 days, the kill in % is determined. 100% means that all of the fleas have been killed; 0% means that none of the fleas have been killed.

[1] = tested on: Boophilus microplus Parkhurst strain, SP-resistant; test: Boophilus microplus dip test (BOOPMI Dip); details: application rate 20 ppm; engorged adult female cattle ticks; after 7 days
Experimental: Boophilus microplus—Dip Test (BOOPMI Dip) Test animals: cattle ticks (Boophilus microplus) Parkhurst strain, SP-resistant Solvent: dimethyl sulphoxide
10 mg of active compound are dissolved in 0.5 ml of dimethyl sulphoxide. To produce a suitable formulation, the active compound solution is diluted with water to the concentration desired in each case.
This active compound preparation is pipetted into tubes. 8-10 engorged adult female cattle ticks (Boophilus microplus) are transferred into a further tube with holes. The tube is immersed into the active compound preparation, and all the ticks are completely wetted. After the liquid has run out, the ticks are transferred on filter discs into plastic dishes and stored in a climate-controlled room.
Efficacy is assessed after 7 days by laying of fertile eggs. Eggs which are not visibly fertile are stored in a climate-controlled cabinet until the larvae hatch after about 42 days. An efficacy of 100% means that none of the ticks has laid any fertile eggs; 0% means that all the eggs are fertile.

N-{2-fluoro-5-[2′-methyl-5′-(pentafluoroethyl)-4′-(trifluoromethyl)-2′H-1,3′-bipyrazol-4-yl]benzyl}propanamide [Ic-1]
100%: efficacy (Phaedon cochleariae) | efficacy (kill) (Ctenocephalides felis) | efficacy (laying of fertile eggs) [1]
